The assay concerns poppy crops. As to the kind of experiment: Example 19: field trial, sulfosulfuron, thifensulfuron-methyl and metsulfuron-methyl, morphine crop. The assay is classed as in vivo, Papaver somniferum. The note with it: applied at M-LRU and LRU-BE; for PLANT HEIGHT: measured some 10 weeks after last application. The procedure:
All trials were conducted on poppy crops. Seed was treated with Thiram (5.6 g of Thiram 800/kg seed) and Apron (4 g/kg) and sown at a rate of approximately 750 g/ha. Fertilisers were applied at sowing. Most commonly, either 50:50 lime:superphosphate/triple superphosphate at 125 kg/ha, or lime:superphosphate at 250 kg/ha, were mixed with seed and drilled at a depth of 15 mm. In the same operation, NPK (nitrogen:phosphorus:potassium), at various rates, was banded 75 mm below the seed, unless otherwise stated. All crops were subjected to herbicide sprays for weed control, fungicide sprays for disease control, insecticide sprays if appropriate and were irrigated as required.
All spray applications were made with a precision sprayer, using Silvan Lurmark flat-fan, low-drift nozzles (LD110-0015). Spray equipment was calibrated to deliver 153 L water/ha.
At harvest, a 2 m×4 m quadrat was placed in each plot (3 m×6 m, unless otherwise stated) and capsules hand-picked from this area. Capsules were broken up, seed and capsule material separated and weighed. Capsule moisture readings were taken with a moisture meter. Alkaloid yield data were calculated on Pesticide Research Manager (version 5 for Windows) using the formulae below. Briefly, capsule weight was adjusted for moisture to a dry weight, 5% of seed weight was added to this (this amount of capsule material regularly occurs in seed samples after processing) to give a capsule weight per plot. Seed weight was adjusted to 95% of crude weight. Straw weights were determined by multiplying dry capsule weight by 1.3 (estimated amount of stem material in a commercial harvest) and adjusted to 11% moisture. When Lontrel was applied to crops exact capsule and seed weight data were entered. Analyses of variance and a Multiple Range Test were performed on data using Pesticide Research Manager.
Trial to evaluate applications of sulfosulfuron, thifensulfuron-methyl and metsulfuron-methyl, in a morphine crop. Treatment sprays were applied to crop at mid-late run-up and late-run-up/bud-emergence, respectively. Plant heights were measured some 10 weeks after the last application. Lodging was assessed at capsule harvest.

Setting [1] is: 1.35 G/HA + ACTIVATOR .125 % V/V.
The mark [2] stands for this setting: 4.5 G/HA + ACTIVATOR .125 % V/V.
[3] abbreviates: 450 MG/HA + ACTIVATOR .125 % V/V.

Consider two compounds from patent US8557737B2, “Methods of altering poppy characteristics” (priority 2005, dated 2013).

As to `CCS(=O)(=O)c1nc2ccccn2c1S(=O)(=O)NC(=O)Nc1nc(OC)cc(OC)n1` [Compound 5, sulfosulfuron], where the note is “60 MG/HA + SWIFT 1 % V/V”, the “CAPSULE/SEED RATIO” value is reported as 2.324, the “CROP WEIGHT” value is reported as “.96 t/ha”, the MORPHINE is on record as 19.19 kg/ha and the SEED stood at 220 kg/ha. For the same compound, for the setting “60 MG/HA + SWIFT 1 % V/V”, the STRAW was determined as 738 kg/ha, the “STRAW MORPHINE %” value turned out to be 2.6% and the “PLANT HEIGHT” value turned out to be 73 cm. Where the note is “180 MG/HA + SWIFT 1 % V/V”, the “CAPSULE/SEED RATIO” value was determined as 2.898, the “CROP WEIGHT” value is 1.15 t/ha, the MORPHINE is given as 22.90 kg/ha and the SEED is 223 kg/ha. Under “180 MG/HA + SWIFT 1 % V/V”, the STRAW worked out at 931 kg/ha, the “STRAW MORPHINE %” value amounted to 2.46% and the “PLANT HEIGHT” value amounted to 75 cm. For the setting “600 MG/HA + SWIFT 1 % V/V”, the “CAPSULE/SEED RATIO” value amounted to 4.564, the “CROP WEIGHT” value was found to be 0.89 t/ha, the MORPHINE amounted to 20.74 kg/ha and the SEED was 118 kg/ha. Besides, for the setting “600 MG/HA + SWIFT 1 % V/V”, the STRAW stood at 774 kg/ha, the “STRAW MORPHINE %” value came out at 2.68% and the “PLANT HEIGHT” value is listed as 80 cm.

Turning to `COC(=O)c1sccc1S(=O)(=O)NC(=O)Nc1nc(C)nc(OC)n1` [Compound 4, thifensulfuron-methyl], under setting [1], the “CAPSULE/SEED RATIO” value came out at 3.299, the “CROP WEIGHT” value came to 0.22 t/ha, the MORPHINE turned out to be 4.10 kg/ha and the SEED is given as 39 kg/ha. Moreover, under setting [1], the STRAW was 184 kg/ha, the “STRAW MORPHINE %” value is given as 2.23% and the “PLANT HEIGHT” value was 65 cm. Also, under setting [2], the “CAPSULE/SEED RATIO” value is listed as 0, the “CROP WEIGHT” value came to 0 t/ha, the MORPHINE stood at 0 kg/ha and the SEED is on record as 0 kg/ha. Moreover, under setting [2], the STRAW amounted to 0 kg/ha, the “STRAW MORPHINE %” value came to 0% and the “PLANT HEIGHT” value stood at 0 cm. Under setting [3], the “CAPSULE/SEED RATIO” value is 5.209, the “CROP WEIGHT” value was 0.87 t/ha, the MORPHINE stood at 16.19 kg/ha and the SEED turned out to be 103 kg/ha. Under setting [3], the STRAW was 771 kg/ha, the “STRAW MORPHINE %” value is 2.10% and the “PLANT HEIGHT” value worked out at 78 cm.
